# Data taken from ChEMBL document CHEMBL1201862, “PubChem BioAssay data set” (2004).
#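 Cells were grown in 96-well plates and exposed to each compound for 48 hours at five concentrations; endpoints were interpolated linearly between bracketing concentrations, or set to the highest concentration if not reached. At the GI50, growth is halved.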 Active and inactive are the calls of the source. Rule as the data show it: active = GI50 up to about 1.1 µM and inactive = higher.
# Assays:
# Assay in all cases: NCI-60 cell line screen, 48 h
# OVCAR-8 = test system: OVCAR-8
# SNB-75 = test system: SNB-75
# IGROV-1 = test system: IGROV-1
# OVCAR-5 = test system: OVCAR-5
# HOP-92 = test system: HOP-92
# MDA-N = test system: MDA-N
# SW-620 = test system: SW-620
# CCRF-CEM = test system: CCRF-CEM
# 786-0 = test system: 786-0
# SK-MEL-2 = test system: SK-MEL-2
# SN12C = test system: SN12C
# NCI-H522 = test system: NCI-H522
# UACC-62 = test system: UACC-62
# Hs-578T = test system: Hs-578T
# SF-295 = test system: SF-295
# UO-31 = test system: UO-31
# NCI-H23 = test system: NCI-H23
# HCT-15 = test system: HCT-15
# DU-145 = test system: DU-145
# MDA-MB-435 = test system: MDA-MB-435
# MDA-MB-231 = test system: MDA-MB-231
# HL-60 = test system: HL-60
# MCF7 = test system: MCF7
# HOP-62 = test system: HOP-62
# M14 = test system: M14
# SK-OV-3 = test system: SK-OV-3
# OVCAR-3 = test system: OVCAR-3
# LOX IMVI = test system: LOX IMVI
# ACHN = test system: ACHN
# HT-29 = test system: HT-29
# TK-10 = test system: TK-10
# MOLT-4 = test system: MOLT-4
# UACC-257 = test system: UACC-257
# SF-268 = test system: SF-268
# SNB-19 = test system: SNB-19
# PC-3 = test system: PC-3
# OVCAR-4 = test system: OVCAR-4
# T47D = test system: T47D
# RXF 393 = test system: RXF 393
# Malme-3M = test system: Malme-3M
# HCC 2998 = test system: HCC 2998
# COLO 205 = test system: COLO 205
# CAKI-1 = test system: CAKI-1
# KM12 = test system: KM12
# EKVX = test system: EKVX
# SK-MEL-5 = test system: SK-MEL-5
# A549 = test system: A549
# RPMI-8226 = test system: RPMI-8226
# SK-MEL-28 = test system: SK-MEL-28
# NCI/ADR-RES = test system: NCI/ADR-RES
# K562 = test system: K562
# HCT-116 = test system: HCT-116
# NCI-H226 = test system: NCI-H226
# SR = test system: SR
# SF-539 = test system: SF-539
# U-251 = test system: U-251
# A498 = test system: A498
# NCI-H460 = test system: NCI-H460
# BT-549 = test system: BT-549
compound,measurement,setting,value
Cc1ccc2nc(N/N=C/c3ccc(C)s3)cc(C)c2c1,GI50,OVCAR-8,12.9 µM (inactive)
same,GI50,SNB-75,> 10 µM (inactive)
same,GI50,IGROV-1,6.87 µM (inactive)
same,GI50,OVCAR-5,10.1 µM (inactive)
same,GI50,HOP-92,4.44 µM (inactive)
same,GI50,MDA-N,7.8 µM (inactive)
same,GI50,SW-620,6.1 µM (inactive)
same,GI50,CCRF-CEM,5.11 µM (inactive)
same,GI50,786-0,3.37 µM (inactive)
same,GI50,SK-MEL-2,19 µM (inactive)
same,GI50,SN12C,12.7 µM (inactive)
same,GI50,NCI-H522,4.52 µM (inactive)
same,GI50,UACC-62,10.6 µM (inactive)
same,GI50,Hs-578T,15.2 µM (inactive)
same,GI50,SF-295,7.94 µM (inactive)
same,GI50,UO-31,9.82 µM (inactive)
same,GI50,NCI-H23,7.98 µM (inactive)
same,GI50,HCT-15,4.52 µM
same,GI50,DU-145,11 µM (inactive)
same,GI50,MDA-MB-435,7.31 µM (inactive)
same,GI50,MDA-MB-231,16.1 µM (inactive)
same,GI50,HL-60,4.71 µM (inactive)
same,GI50,MCF7,6.79 µM (inactive)
same,GI50,HOP-62,15.7 µM (inactive)
same,GI50,M14,10.2 µM (inactive)
same,GI50,SK-OV-3,18.3 µM (inactive)
same,GI50,OVCAR-3,6.24 µM (inactive)
same,GI50,LOX IMVI,4.53 µM (inactive)
same,GI50,ACHN,11.7 µM (inactive)
same,GI50,HT-29,3.51 µM (inactive)
same,GI50,TK-10,8.97 µM (inactive)
same,GI50,MOLT-4,5.75 µM (inactive)
same,GI50,UACC-257,5.56 µM (inactive)
same,GI50,SF-268,11.6 µM (inactive)
same,GI50,SNB-19,12.9 µM (inactive)
same,GI50,PC-3,11.8 µM (inactive)
same,GI50,OVCAR-4,10.3 µM (inactive)
same,GI50,T47D,7.91 µM (inactive)
same,GI50,RXF 393,13.3 µM (inactive)
same,GI50,Malme-3M,12.8 µM (inactive)
same,GI50,HCC 2998,4.69 µM (inactive)
same,GI50,COLO 205,3.79 µM (inactive)
same,GI50,CAKI-1,17.1 µM (inactive)
same,GI50,KM12,4.76 µM (inactive)
same,GI50,EKVX,5.7 µM (inactive)
same,GI50,SK-MEL-5,4.56 µM (inactive)
same,GI50,A549,6.79 µM (inactive)
same,GI50,RPMI-8226,3.61 µM (inactive)
same,GI50,SK-MEL-28,6.76 µM (inactive)
same,GI50,NCI/ADR-RES,12.3 µM (inactive)
same,GI50,K562,3.99 µM (inactive)
same,GI50,HCT-116,3.7 µM (inactive)
same,GI50,NCI-H226,10.1 µM (inactive)
same,GI50,SR,19.7 µM (inactive)
same,GI50,SF-539,11 µM (inactive)
same,GI50,U-251,9.51 µM (inactive)
CC(=O)N1CC(C)(C)c2c(C)c(O)c(C)c(C)c21,GI50,OVCAR-8,> 100 µM (inactive)
same,GI50,SNB-75,54.5 µM (inactive)
same,GI50,IGROV-1,> 100 µM (inactive)
same,GI50,OVCAR-5,> 100 µM (inactive)
same,GI50,HOP-92,> 100 µM (inactive)
same,GI50,MDA-N,> 100 µM (inactive)
same,GI50,SW-620,> 100 µM (inactive)
same,GI50,CCRF-CEM,> 100 µM (inactive)
same,GI50,786-0,> 100 µM (inactive)
same,GI50,SN12C,> 100 µM (inactive)
same,GI50,NCI-H522,> 100 µM (inactive)
same,GI50,UACC-62,> 100 µM (inactive)
same,GI50,Hs-578T,> 100 µM (inactive)
same,GI50,SF-295,> 100 µM (inactive)
same,GI50,UO-31,> 100 µM (inactive)
same,GI50,NCI-H23,> 100 µM (inactive)
same,GI50,HCT-15,> 100 µM
same,GI50,DU-145,> 100 µM (inactive)
same,GI50,MDA-MB-435,> 100 µM (inactive)
same,GI50,A498,> 100 µM (inactive)
same,GI50,MDA-MB-231,> 100 µM (inactive)
same,GI50,HL-60,> 100 µM (inactive)
same,GI50,MCF7,> 100 µM (inactive)
same,GI50,HOP-62,> 100 µM (inactive)
same,GI50,M14,> 100 µM (inactive)
same,GI50,SK-OV-3,> 100 µM (inactive)
same,GI50,OVCAR-3,> 100 µM (inactive)
same,GI50,LOX IMVI,> 100 µM (inactive)
same,GI50,ACHN,> 100 µM (inactive)
same,GI50,HT-29,> 100 µM (inactive)
same,GI50,TK-10,> 100 µM (inactive)
same,GI50,MOLT-4,> 100 µM (inactive)
same,GI50,UACC-257,> 100 µM (inactive)
same,GI50,SF-268,> 100 µM (inactive)
same,GI50,SNB-19,> 100 µM (inactive)
same,GI50,PC-3,> 100 µM (inactive)
same,GI50,OVCAR-4,> 100 µM (inactive)
same,GI50,T47D,> 100 µM (inactive)
same,GI50,RXF 393,> 100 µM (inactive)
same,GI50,HCC 2998,> 100 µM (inactive)
same,GI50,COLO 205,> 100 µM (inactive)
same,GI50,KM12,> 100 µM (inactive)
same,GI50,EKVX,> 100 µM (inactive)
same,GI50,SK-MEL-5,> 100 µM (inactive)
same,GI50,A549,> 100 µM (inactive)
same,GI50,RPMI-8226,> 100 µM (inactive)
same,GI50,SK-MEL-28,> 100 µM (inactive)
same,GI50,NCI/ADR-RES,> 100 µM (inactive)
same,GI50,K562,> 100 µM (inactive)
same,GI50,NCI-H460,> 100 µM (inactive)
same,GI50,HCT-116,> 100 µM (inactive)
same,GI50,NCI-H226,> 100 µM (inactive)
same,GI50,SF-539,> 100 µM (inactive)
same,GI50,U-251,> 100 µM (inactive)
CSc1nc(-c2cc3c(c(SC)n2)CCCCC3)cc2c1CCCCC2,GI50,OVCAR-8,> 100 µM (inactive)
same,GI50,SNB-75,34.3 µM (inactive)
same,GI50,IGROV-1,22.8 µM (inactive)
same,GI50,OVCAR-5,> 100 µM (inactive)
same,GI50,MDA-N,> 100 µM (inactive)
same,GI50,SW-620,> 100 µM (inactive)
same,GI50,BT-549,> 100 µM (inactive)
same,GI50,CCRF-CEM,> 100 µM (inactive)
same,GI50,786-0,> 100 µM (inactive)
same,GI50,SK-MEL-2,> 100 µM (inactive)
same,GI50,SN12C,> 100 µM (inactive)
same,GI50,NCI-H522,7.67 µM (inactive)
same,GI50,UACC-62,> 100 µM (inactive)
same,GI50,SF-295,> 100 µM (inactive)
same,GI50,UO-31,> 100 µM (inactive)
same,GI50,NCI-H23,> 100 µM (inactive)
same,GI50,HCT-15,> 100 µM
same,GI50,DU-145,> 100 µM (inactive)
same,GI50,MDA-MB-435,> 100 µM (inactive)
same,GI50,A498,> 100 µM (inactive)
same,GI50,MDA-MB-231,> 100 µM (inactive)
same,GI50,HL-60,> 100 µM (inactive)
same,GI50,HOP-62,56.9 µM (inactive)
same,GI50,M14,> 100 µM (inactive)
same,GI50,SK-OV-3,50.1 µM (inactive)
same,GI50,OVCAR-3,> 100 µM (inactive)
same,GI50,LOX IMVI,> 100 µM (inactive)
same,GI50,ACHN,> 100 µM (inactive)
same,GI50,HT-29,> 100 µM (inactive)
same,GI50,TK-10,> 100 µM (inactive)
same,GI50,MOLT-4,> 100 µM (inactive)
same,GI50,UACC-257,> 100 µM (inactive)
same,GI50,SF-268,50.7 µM (inactive)
same,GI50,SNB-19,> 100 µM (inactive)
same,GI50,PC-3,> 100 µM (inactive)
same,GI50,OVCAR-4,> 100 µM (inactive)
same,GI50,RXF 393,> 100 µM (inactive)
same,GI50,HCC 2998,> 100 µM (inactive)
same,GI50,COLO 205,> 100 µM (inactive)
same,GI50,CAKI-1,> 100 µM (inactive)
same,GI50,KM12,> 100 µM (inactive)
same,GI50,EKVX,> 100 µM (inactive)
same,GI50,SK-MEL-5,> 100 µM (inactive)
same,GI50,A549,> 100 µM (inactive)
same,GI50,RPMI-8226,> 100 µM (inactive)
same,GI50,SK-MEL-28,> 100 µM (inactive)
same,GI50,NCI/ADR-RES,> 100 µM (inactive)
same,GI50,K562,> 100 µM (inactive)
same,GI50,NCI-H460,> 100 µM (inactive)
same,GI50,HCT-116,> 100 µM (inactive)
same,GI50,NCI-H226,> 100 µM (inactive)
same,GI50,SF-539,> 100 µM (inactive)
same,GI50,U-251,> 100 µM (inactive)
